Assay [1] has as its system 4175-LuT exosome uptake in the lung. Put plainly: Peptide blocking of 4175-LuT exosome uptake in the lung. In kind it is in vivo, mice. Particulars: 0.06 μM peptide, 30 minutes at 37° C. prior to exosome injection. The method, then:
FIGS. 6A-D show exosomal ITGβ4 expression functionally contributes to 4175-LuT exosome localization and mediates lung metastasis. FIG. 6A, left upper panels, show NIR whole lung imaging of 4175-LuT, 4175β4KD or 4175-LuT-derived exosomes pre-incubated with RGD or HYD-1 peptides. Scale bar, 5 mm. […] (n=4, except 4175 for which n=6). Error bars, ± s.e.m. *P<0.05; **P<0.01 by one-way ANOVA. The left lower panels show fluorescence microscopy. Arrows indicate exosome foci. Scale bar, 50 μm. […] Error bars, ±s.e.m. ***P<0.001 by one-way ANOVA. FIG. 6B, left panel, show NIR whole lung imaging of 1833-BoT (n=5) or 1833-BoT overexpressing (OE) ITGβ4 (n=4) exosomes. Scale bar, 5 mm. […] Bioluminescence imaging of lung metastasis and quantification of luciferase activity (n=6, data representative of 2 independent experiments) is shown. […]
To assess lung, liver and bone exosome distribution, exosomes were injected via the retro-orbital venous sinus, the tail vein or intracardially. […] An average of five random fields was counted per sample at 20× magnification and representative pictures were taken at 40× magnification. […] To measure exosome uptake by specific cell types, labelled exosomes were injected 24 hours prior to tissue collection and tissues were analysed for exosome-positive cells by immunofluorescence. […] Whole lung images were analysed by image J software, by red fluorescence area in arbitrary unit (a.u.).

The next assay relates to WI-38 lung fibroblasts. The assay can be described thus: In vitro uptake of 4175-LuT exosomes by WI-38 lung fibroblasts. Particulars: 10 μg/ml exosomes pre-incubated with peptide 30 minutes at 37° C., one hour with cells. Type of assay: cell-based, human. The method, then:
FIGS. 5A-M show ITGs functionally regulate organotropic exosome uptake and exosome-mediated metastasis. […] For western blot source data, see FIG. 9L. […] The WI-38 cell membrane was labelled with PKH67 dye and 4175-LuT exosomes were labelled with PKH26 dye. 10 μg/ml of exosomes were first incubated with PBS or HYD-1 peptide for 30 minutes at 37° C., followed by one hour incubation with WI-38 cells at 37° C. Excess exosomes were washed and cells were imaged (n=4 for two independent experiments); scale bar, 10 μm. […] For western blot source data, see FIG. 9M. […] Arrows indicate lung metastasis. Scale bar, 500 μm. […] For western blot source data, see FIG. 9N. […] An average of five random fields were counted at 20× magnification (data representative of 2 independent experiment n=3). […] Livers were harvested and analyzed for exosome positive cells by flow cytometry 24 hours post injection (n=4, except for the ITGαvβ5 antibody group, which n=5). […] Livers were digested and exosome-positive cells were quantified by flow cytometry (n=3). […] The lower panels show liver weight quantification (n=4 except for the control and peptide group for which n=3 of one experiment). […] Three days after cells were plated at equal density, cell numbers were counted using a hemocytometer (n=3 in 3 independent experiments). […]

“KIKMVISWKG (Artificial Amino acid HYD-1 peptide)”: in assay [1], the “4175-LuT exosome uptake in the lung after pre-incubation with peptide” value was “dramatically reduced”. In the assay on WI-38 lung fibroblasts, the “uptake of 4175-LuT exosomes by WI-38 lung fibroblasts in vitro” value was “prevented”.

Source of the values: patent US11971402B2, “Methods and reagents for determination and treatment of organotropic metastasis” (CORNELL UNIVERSITY, priority 2015, dated 2024).
